Experimental data published in patent US20260069555A1, “Compositions and Methods for Modulating the Effect of Beta-Blocker Activity in a Subject” (Duke University, priority 2021, published 2026).
Where “and” joins values, the source holds several entries; their conditions need not be identical. Equal values may be shown once. Values belong to the compound of their own block, whether it stands above or below them.

What was measured:
β2AR-Gs complexes = β2AR-Gs complexes (Homo sapiens, UniProt P07550); assay: 35S-GTPγS binding to heterotrimeric Gs, β2AR in HDL; details: epinephrine 10 μM stimulation
[1] = molecular target: endogenously expressed β2AR (Homo sapiens, UniProt P07550); assay: GloSensor cAMP generation in HEK293 cells; details: 30 μM modulator
β2AR = β2AR (Homo sapiens, UniProt P07550); assay: 125I-CYP competition radioligand binding at β2AR in HDL particles
β1AR [2] = molecular target: T1, β1AR (Homo sapiens, UniProt P08588); assay: EGFR transactivation (EGFR endocytosis BRET) in HEK293 cells stably expressing β1ARs; assay type: cell-based
Description: HEK293 cells stably expressing β1ARs were transfected with 250 ng of EGFR-RlucII and 1 μg of rGFP-FYVE constructs. The day following transfection, cells were re-seeded onto poly-L-ornithine coated 96-well plates at ˜25,000 cells per well. […] The cell-permeable substrate coelenterazine 400a (final concentrations of 5 μM) was added 3˜6 min before BRET measurements.

β1AR [3] = molecular target: T1, β1AR; assay: GloSensor cAMP assay in HEK293 cells transfected with β1ARs; details: for activation of cAMP: β-blockers as stimulating ligands
β1AR [4] = molecular target: T1, β1AR; assay: ERK activation assay in HEK293 cells expressing β1ARs; assay type: cell-based; details: for dependency of ERK activation on β-arrestin: β-arrestin1/2 knockout vs wild type HEK293 cells
From the text: ERK activation assay: HEK293 cells with stable overexpression of FLAG-tagged β1AR or β-arrestin knockout were described previously. Cells were periodically treated with BM Cyclin (Roche) to avoid mycoplasma contamination. […] Cell lysate samples were separated by SDS-PAGE, transferred to PVDF membrane (Bio-Rad) and subjected to immunoblotting with anti-MAPK 1/2 (EMD Millipore) and anti-p44/42 MAPK (Cell Signaling) antibodies. Immunoblots were detected using enhanced chemiluminescence (Thermo Fisher Scientific) and analyzed with ImageJ software. The densitometry values from pERK blots were normalized to respective total ERK blots, and normalized to the maximum response of control group in each experiment.

β1AR [5] = molecular target: T1, β1AR; assay: 125I-CYP competition binding at β1AR-HDL particles (Example 2)
C57BL/6J wild-type mice = assay: Isoproterenol-induced hemodynamics in mouse heart; assay type: in vivo; details: 3 days
Description: Isoproterenol-induced hemodynamic in mouse heart: Eight to twelve-week-old C57BL/6J wild-type mice of both sexes were used. Animal experiments carried out were handled according to approved protocols and animal welfare regulations mandated by the Institutional Animal Care and Use Committee of Duke University Medical Center. […] After treatment, mice were anesthetized with ketamine (100 mg/kg) and xylazine (2.5 mg/kg). After bilateral vagotomy, a 1.4 French (0.46 mm) high fidelity micromanometer catheter (ADInstruments) connected to a pressure transducer (ADInstruments) was inserted into the left ventricle to monitor blood pressure. Basal blood pressure was recorded at steady state after the catheter insertion (2-3 min after insertion). Graded doses of isoproterenol were administered at 45 sec intervals by intravenous injection through a jugular vein. The blood pressure was monitored continuously and recorded at the steady state (35-45 sec after each injection). Data analysis was performed using LabChart 8 software (ADInstruments).

mouse hearts = assay: Ischemia/reperfusion-induced cell apoptosis in mouse heart (TUNEL); assay type: in vivo
Description: Ischemia reperfusion-induced cell apoptosis in mouse heart: Eight to twelve-week-old C57BL/6J wild-type mice or eight to twenty-seven-week-old αMyHC-Cre:Arrblflox/flox/Arrb2flox/flox mice of both sexes were used. Animals were randomly assigned to, and the researchers were blinded for, treatment groups. […] After 3 days of treatment, cardiac ischemia was produced by the ligation of left anterior descending coronary artery. After 45 min, the ligation was released to allow the blood flow to be restored for 45 min. […] The hearts were then embedded in optimum cutting temperature compound (Sakura Finetek) and snap frozen in liquid nitrogen. TUNEL staining on the cryo-sections were performed with in situ cell death detection kit (Sigma-Aldrich) according to the manufacturer's protocol. Sections were then mounted in ProLon Diamond Antifade Mountant with DAPI (Thermo Fisher Scientific). Images were recorded with Zeiss Axio Observer Z1 confocal microscope with 20× objective. In each heart, sections from different groups (from base to apex of the tissue, apart by 0.5 mm) were stained, and the group with maximum TUNEL-positive cells were used for quantification. At lease 9 images from 3 sections were quantified for each heart. The number of TUNEL-positive cells and the total number of nuclei as determined by DAPI staining were counted using ImageJ software.

Chain of β2AR (P07550 whole entry): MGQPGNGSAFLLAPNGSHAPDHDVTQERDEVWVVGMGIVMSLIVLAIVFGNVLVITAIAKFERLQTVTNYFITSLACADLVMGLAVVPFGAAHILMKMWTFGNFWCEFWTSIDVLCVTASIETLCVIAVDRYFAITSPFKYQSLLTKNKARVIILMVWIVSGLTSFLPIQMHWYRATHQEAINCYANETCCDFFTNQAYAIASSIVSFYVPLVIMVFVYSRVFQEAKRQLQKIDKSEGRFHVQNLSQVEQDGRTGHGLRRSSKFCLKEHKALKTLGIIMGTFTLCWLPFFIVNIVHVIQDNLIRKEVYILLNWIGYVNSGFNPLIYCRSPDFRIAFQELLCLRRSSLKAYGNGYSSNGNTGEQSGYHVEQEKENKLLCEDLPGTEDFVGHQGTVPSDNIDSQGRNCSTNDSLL
T1 sequence (P08588 whole entry): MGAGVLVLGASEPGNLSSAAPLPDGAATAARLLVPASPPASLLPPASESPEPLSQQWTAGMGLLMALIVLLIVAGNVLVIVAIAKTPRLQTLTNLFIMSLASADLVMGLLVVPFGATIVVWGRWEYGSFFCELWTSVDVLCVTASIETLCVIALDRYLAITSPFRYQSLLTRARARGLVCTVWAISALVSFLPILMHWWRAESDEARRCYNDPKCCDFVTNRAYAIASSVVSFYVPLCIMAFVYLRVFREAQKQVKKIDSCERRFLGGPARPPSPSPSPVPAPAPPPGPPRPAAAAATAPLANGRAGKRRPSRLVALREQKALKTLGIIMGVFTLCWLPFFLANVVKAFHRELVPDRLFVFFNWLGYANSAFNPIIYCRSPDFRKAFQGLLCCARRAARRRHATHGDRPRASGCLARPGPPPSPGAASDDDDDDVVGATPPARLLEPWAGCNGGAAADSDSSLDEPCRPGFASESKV
Chain of endogenously expressed β2AR (P07550 whole entry): as the sequence (P07550 whole entry) above
Chain of β2AR-Gs complexes (P07550 whole entry, one chain of several): as the sequence (P07550 whole entry) above

Compound: COc1ccc(Sc2ccc(S(=O)(=O)N(C)C(C)C)cc2C(=O)N[C@@H](CC(N)=O)Cc2ccc(C(C)(C)C)cc2)cc1 [Cmpd-6, (R)—N-(4-amino-1-(4-(tert-butyl)phenyl)-4-oxobutan-2-yl)-5-(N-isopropyl-N-methylsulfamoyl)-2-((4-methoxyphenyl)thio)benzamide]
effect on isoproterenol- or carvedilol-induced cAMP dose response curve (β1AR [3]; 30 μM Cmpd-6): no enhancement
cooperativity on isoproterenol-stimulated ERK activation (β1AR [4]; 30 μM Cmpd-6): no cooperativity
cooperativity with the full agonists epinephrine and norepinephrine (β1AR [5]; 25 μM Cmpd-6): minimal positive cooperativity
enhancement of receptor binding affinity of carvedilol for β1ARs (β1AR [5]; FIG. 10A): 7.9 fold and ~8 fold
potentiation of the inhibitory effect of carvedilol on heart rate and dP/dt max (C57BL/6J wild-type mice; Cmpd-6 5 mg/kg/day + carvedilol 1 mg/kg/day): only a modest potentiation
PAM activity on the isoproterenol-induced EGFR transactivation (β1AR [2]; 30 μM Cmpd-6): no PAM activity
TUNEL positive cells in the ischemic zone (mouse hearts; Cmpd-6 5 mg/kg/day alone, wild type mice): ~10%

Compound: C=CCc1ccccc1OCC(O)CNC(C)C (stereo not shown) [alprenolol]
activation of cAMP (β1AR [3]): 20 % of the maximal isoproterenol response
dependency of ERK activation on β-arrestin (β1AR [4]): ~50%

Compound: CC(C)(Cc1c[nH]c2ccccc12)NCC(O)COc1ccccc1C#N (stereo not shown) [bucindolol]
activation of cAMP (β1AR [3]): 40 % of the maximal isoproterenol response
dependency of ERK activation on β-arrestin (β1AR [4]): independent of β-arrestin

Compound: COc1ccccc1OCCNCC(O)COc1cccc2[nH]c3ccccc3c12 (stereo not shown) [carvedilol]
effect on isoproterenol-induced hemodynamics (heart rate, dP/dt max) (C57BL/6J wild-type mice; 1 mg/kg/day, osmotic pump): minimal effect
effect on isoproterenol-induced hemodynamics (heart rate, dP/dt max) (C57BL/6J wild-type mice; higher doses (5, 20 mg/kg/day)): blocked both the heart rate and contractility response
effect on I/R induced apoptosis (mouse hearts; 5 or 20 mg/kg/day, wild type mice): inhibited I/R induced apoptosis
effect on I/R-induced apoptosis (mouse hearts; low or high dose (1 or 20 mg/kg/day), cardiomyocyte-specific β-arrestin1/2 knockout mice): did not reduce

Compound: EGF: EGF ligand of the EGFR
ligand-induced EGFR endocytosis (change in BRET ratio) (β1AR [2]; assay validation): robust change in BRET ratio

More lines, main results first:

effect on agonist-stimulated activation of Gs / 35S-GTPγS binding to Gs (β2AR-Gs complexes): markedly blocks
modulation of isoproterenol-stimulated cAMP generation [1]: classic NAM
PAM activity with agonists including epinephrine (β2AR; affinity shifts, 20 μM analog): absolutely no PAM activity
Log KT (dissociation constant of PAM for receptor binding) (β2AR; carvedilol-bound β2AR): −5.533
Compound: CC(C)N(C)S(=O)(=O)c1ccc(Sc2ccc(C(N)=O)cc2)c(C(=O)N[C@@H](CC(N)=O)Cc2ccc(C(C)(C)C)cc2)c1 [A9, (R)—N-(4-amino-1-(4-(tert-butyl)phenyl)-4-oxobutan-2-yl)-2-((4-carbamoylphenyl)thio)-5-(N-isopropyl-N-methylsulfamoyl)benzamide]
cooperativity with carvedilol (β2AR; compared with parent cmpd-6): retains its positive cooperativity with carvedilol

effect on EGF-induced change in BRET ratio (β1AR [2]; 10 μM pretreatment): blocked
Compound: COc1cc2ncnc(Nc3cccc(Cl)c3)c2cc1OC [AG1478]
